Reference: patent US6913892B1, “Method of obtaining compositions comprising Y4 specific compounds” (H. Lundbeck A/S, priority 1993, dated 2005)
Each block holds one substance with its values, some of them ahead of it.

Legend:
[1] = target: PP receptor; conditions: Table 1, rank orders from published reports; cited from earlier work
[2] = target: T1, Y1 receptor (Homo sapiens, UniProt P25929); experiment: Competitive displacement / binding of 125I-PYY, membranes of COS-7 cells transiently expressing human Y1 receptors; parameters: expressed in transfected cells; host or cells: COS-7
T1 sequence (P25929 1-384): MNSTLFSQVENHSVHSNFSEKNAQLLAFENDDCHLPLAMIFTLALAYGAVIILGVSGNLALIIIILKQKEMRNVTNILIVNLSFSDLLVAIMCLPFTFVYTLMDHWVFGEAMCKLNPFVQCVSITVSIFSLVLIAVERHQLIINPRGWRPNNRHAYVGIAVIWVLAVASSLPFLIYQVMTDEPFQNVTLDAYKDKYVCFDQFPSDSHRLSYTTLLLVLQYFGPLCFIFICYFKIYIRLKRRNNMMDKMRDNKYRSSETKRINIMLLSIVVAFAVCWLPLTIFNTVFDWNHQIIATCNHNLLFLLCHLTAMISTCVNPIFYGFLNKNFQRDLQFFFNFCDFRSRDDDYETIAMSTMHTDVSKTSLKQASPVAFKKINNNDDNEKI

[3] = target: T2, human hp25a (Y4) receptor (Homo sapiens, UniProt P50391); experiment: Competitive displacement / binding of 125I-PYY, membranes of COS-7 cells transiently expressing hp25a (human Y4) receptors
T2 construct: The entire coding region of hp25a (1127 bp); expressed in transfected cells; host or cells: COS-7
T2 sequence (P50391 whole entry): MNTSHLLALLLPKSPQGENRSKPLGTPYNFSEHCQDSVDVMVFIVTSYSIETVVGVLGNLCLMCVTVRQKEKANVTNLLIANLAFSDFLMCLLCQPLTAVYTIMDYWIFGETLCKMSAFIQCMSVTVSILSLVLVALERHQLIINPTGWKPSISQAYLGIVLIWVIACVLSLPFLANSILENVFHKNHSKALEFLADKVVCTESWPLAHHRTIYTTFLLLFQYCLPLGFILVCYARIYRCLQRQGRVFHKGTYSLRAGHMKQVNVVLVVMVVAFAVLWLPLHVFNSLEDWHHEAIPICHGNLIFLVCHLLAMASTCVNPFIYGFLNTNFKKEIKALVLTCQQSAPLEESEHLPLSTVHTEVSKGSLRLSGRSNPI

[4] = target: Y3 receptor; conditions: Table 1, rank orders from published reports; cited from earlier work
[5] = tested on: PYY-preferring receptor; conditions: Laburthe et al., 1986, 1990; cited from earlier work
[6] = target: T1, Y1 receptor; conditions: Table 1, rank orders from published reports; cited from earlier work
[7] = N-terminal deletion of porcine NPY

Substance: [LEU^31, Pro^34]NPY: analog of NPY modified at residues 31 and 34, species not stated (Table 1)
Affinity (−pKi or −pEC50), PP [1]: 9 to 8

decrease in affinity compared with full length parent peptide, human Y1 receptors [2, 7]: 1000 fold
decrease in affinity compared with full length parent peptide, hp25a [3, 7]: 33 fold
Substance: NPY13-36: NPY carboxyl-terminal fragment 13-36, species not stated; b153 folds follow porcine data

Substance: ^125I-PYY
observed association rate (Kobs) ([2]; human Y1 in COS-7): 0.06 ± 0.02 min⁻¹
observed association rate (Kobs) ([3]; hp25a, 0.06 nM 125I-PYY): 0.12 ± 0.02 min⁻¹

Substance: [Pro^34]NPY: NPY analog with Pro34 (Table 1)
Affinity (−pKi or −pEC50), Y3 [4]: 9 to 8

Substance: PYY: peptide YY, species not stated at the place
Affinity (−pKi or −pEC50), Y3 [4]: <6
higher affinity for PYY than for NPY [5]: 5-10 fold

Substance: Neuropeptide Y [NPY]
Affinity (−pKi or −pEC50), Y3 [4]: 10 to 9
Affinity (−pKi or −pEC50), PP [1]: <6

Substance: NPY2-36: NPY fragment 2-36, species not stated (Table 1)
Affinity (−pKi or −pEC50), Y1 [6]: 9 to 8
